Measured values taken from patent US20230265089A1, “QUINOLINE DERIVATIVES, PHARMACEUTICALLY ACCEPTABLE SALTS, AND METHODS OF USE THEREOF” (vTv Therapeutics LLC, priority 2020, published 2023).

Target: T1, PDE4D7 (Homo sapiens, UniProt Q08499)
T1 construct: purchased BPS BioSciences 60708
Test: PDE4D7 TR-FRET assay
Format: biochemical
Settings: TR-FRET assay kit, FAM-cAMP substrate
From the text: According to BPS Biosciences product information, the PDE4D7 TR-FRET assay is designed for identification of inhibitors of PDE4D7 using TR-FRET (Time Resolved Fluorescence Resonance Energy Transfer) technology. The assay is based on the generation of FAM-labeled nucleotide monophosphates by the phosphodiesterase. These phosphate groups bind to terbium-labeled nanoparticles, resulting in energy transfer from the terbium to the FAM, which emits a fluorescent signal at 520 nm. The change in fluorescent intensity can be easily measured using a fluorescence plate reader.
The general assay protocol for PDE4D7 TR-FRET assay used to obtain the experimental data described below includes two steps: First, the fluorescent-labeled cAMP is incubated with a sample containing PDE4D7 for 1 hour. Second, a binding agent and a terbium donor are added to the reaction mix and incubated for 1 hour. Then, fluorescence intensity can be measured using a fluorescence reader. A detailed protocol is as follows
Step 1: Dilute 20 μM FAM-Cyclic-3′,5′-AMP substrate stock solution 100-fold with PDE buffer to make a 200 nM solution. Make only a sufficient quantity needed for the assay; store remaining stock solution in aliquots at −20° C. Add 25 μl of FAM-Cyclic-3′,5′-AMP (200 nM) to each well designated “Substrate Control”, “Positive Control”, and “Test Inhibitor”. Add 25 μl of PDE assay buffer to each well designated “Tb-only Control”. Add 5 μl of inhibitor solution to each well designated “Test Inhibitor”. Add 5 μl of the same solution without inhibitor (inhibitor buffer) to the “Tb-only Control”, “Substrate Control” and “Positive Control”. Thaw PDE4D7 on ice. Upon first thaw, briefly spin tube containing enzyme to recover the full contents of the tube. […]
Step 2: Make binding dilution buffer by mixing equal volumes of Binding buffer A and Binding buffer B. For example, mix 1 ml Binding buffer A with 1 ml Binding buffer B. Mix binding agent thoroughly and dilute binding agent 1:50 with binding dilution buffer made in Step 1. […] Read the fluorescent intensity in a microtiter-plate reader capable of TR-FRET.

T1 sequence (Q08499 1-748 isoform Q08499-11): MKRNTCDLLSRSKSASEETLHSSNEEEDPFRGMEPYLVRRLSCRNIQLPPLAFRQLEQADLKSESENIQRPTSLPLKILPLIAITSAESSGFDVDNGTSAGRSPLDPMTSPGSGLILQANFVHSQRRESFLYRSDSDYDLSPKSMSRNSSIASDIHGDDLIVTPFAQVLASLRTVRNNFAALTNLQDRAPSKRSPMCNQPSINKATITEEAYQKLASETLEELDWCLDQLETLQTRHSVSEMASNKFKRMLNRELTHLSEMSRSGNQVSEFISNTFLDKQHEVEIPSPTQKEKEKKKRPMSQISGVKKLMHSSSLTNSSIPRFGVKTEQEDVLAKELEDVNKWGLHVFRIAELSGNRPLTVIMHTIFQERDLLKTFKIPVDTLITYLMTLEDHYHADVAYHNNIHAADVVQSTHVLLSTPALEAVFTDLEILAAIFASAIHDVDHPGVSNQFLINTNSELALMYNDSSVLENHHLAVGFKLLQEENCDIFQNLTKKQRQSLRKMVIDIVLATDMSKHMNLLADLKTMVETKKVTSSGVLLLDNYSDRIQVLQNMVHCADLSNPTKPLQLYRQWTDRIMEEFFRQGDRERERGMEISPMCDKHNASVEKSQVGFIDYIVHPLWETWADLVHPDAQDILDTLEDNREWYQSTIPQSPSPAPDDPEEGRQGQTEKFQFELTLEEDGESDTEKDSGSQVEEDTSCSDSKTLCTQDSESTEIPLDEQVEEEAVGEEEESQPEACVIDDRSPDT

Row | SMILES | IC50 [nM]
1 | COc1cccc2c1ncc1c(=O)n([C@H]3CC[C@H](C(=O)O)CC3)c(=O)n(-c3cccc(Cl)c3)c12 [COMPOUND I * HCI (Batch 1), trans-4-[1-(3-chlorophenyl)-7-methoxy-2,4-dioxo-pyrimido[5,4-c]quinolin-3-yl]cyclohexanecarboxylic acid] | 1.5
2 | COc1cccc2c1ncc1c(=O)n([C@H]3CC[C@H](C(=O)O)CC3)c(=O)n(-c3cccc(Cl)c3)c12 [COMPOUND I * HCI (Batch 2), trans-4-[1-(3-chlorophenyl)-7-methoxy-2,4-dioxo-pyrimido[5,4-c]quinolin-3-yl]cyclohexanecarboxylic acid] | 3.3
3 | COc1cccc2c1ncc1c(=O)n([C@H]3CC[C@H](C(=O)O)CC3)c(=O)n(-c3cccc(Cl)c3)c12 [COMPOUND I * HCI (Batch 3), trans-4-[1-(3-chlorophenyl)-7-methoxy-2,4-dioxo-pyrimido[5,4-c]quinolin-3-yl]cyclohexanecarboxylic acid] | 1.1
